Data set [1] concerns laboratory-adapted HIV-1 IIIB strain. As to conditions: read-out: MT-2 Cells IC50 (μM ± SD); multi-cycle assay, MT-2 cells, HIV-1 IIIB.
Procedure: In brief, 1×10^4 MT-2 cells were infected with HIV-1 at 100 TCID50 (50% tissue culture infective dose) (0.01MOI) in 200 μl medium in the presence or absence of small molecules at graded concentrations and incubated overnight. The culture supernatants were then removed and replaced with fresh media. On the fourth day post-infection, 100 μl of culture supernatants were collected from each well, mixed with equal volume of 5% Triton X-100 and tested for p24 antigen by sandwich-ELISA. The percent inhibition of p24 production and IC50 values were calculated by the GraphPad Prism software (GraphPad Software Inc.).
For data set [2], the system named is MT-2 cells. The data set can be described thus: Cytotoxicity in MT-2 cells (XTT). The format is cell-based. On the procedure: Cytotoxicity of small molecules in MT-2 cells and PBMC was measured by the XTT ((sodium 3′-(1-(phenylamino)-carbonyl)-3,4-tetrazolium-bis(4-methoxy-6-nitro)benzene-sulfonic acid hydrate)) method. Briefly, for MT-2 cells, 100 μl of a small molecule at graded concentrations was added to an equal volume of cells (10^5 cells/ml) in 96-well plates followed by incubation at 37° C. for four days, which ran parallel with the neutralization assay in MT-2 (except medium was added instead of virus). In the case of PBMC, 5×10^5 cells/ml was used and the cytotoxicity was measured after seven days. […] The percentage cytotoxicity and the CC50 values were calculated as described above.

For data set [3], the system named is TZM-bl cells. The data set can be described thus: Cytotoxicity in TZM-bl cells (XTT). The class given is cell-based. As for the experimental part:
The cytotoxicity of small molecules in TZM-bl cells was measured by a colorimetric method using XTT (sodium 3′-(1-(phenylamino)-carbonyl)-3,4-tetrazolium-bis(4-methoxy-6-nitro)benzenesulfonic acid hydrate), a light yellowish tetrazolium dye. Briefly, 100 μl of a compound at graded concentrations was added to equal volume of cells (10^5/ml) in wells of 96-well plates followed by incubation at 37° C. for 3 days and addition of XTT (PolySciences, Inc., Warrington, Pa.).
(Tetrazolium assays rely on reduction of a dye to a coloured formazan, in cell work by metabolically active cells.)

The mark [4] stands for this setting: TZM-bl cells, XTT, 3 days, read-out: TZM-bl cells CC50 (μM ± SD).

Counter-ions that a name gives are not always drawn. Like-named read-outs stand apart in the source and are kept apart here.

In the case of `Cc1nc(C(NC(=O)C(=O)Nc2ccc(Cl)cc2)C2CCCNC2)sc1CO` (stereo not drawn) [Compound 7, N^1-(4-chlorophenyl)-N^2-((5-(hydroxymethyl)-4-methylthiazol-2-yl)(piperidin-3-yl)methyl)oxalamide.2HCl], the IC50 (commonly the concentration at which inhibition is half-maximal) in data set [1] amounted to 12 ± 1.1 µM. The values for the 50% cytotoxic concentration (CC50) in data set [2] and in data set [3] were greater than 81 µM and roughly 60.2 µM, respectively.
In the same order, the values of `Cc1nc(C(NC(=O)C(=O)Nc2ccc(Cl)cc2)C2CCNCC2)sc1CO` (stereo not drawn) [Compound 8, N^1-(4-chlorophenyl)-N^2-((5-(hydroxymethyl)-4-methylthiazol-2-yl)(piperidin-4-yl)methyl)oxalamide.2HCl] are 29.8 ± 3.5 µM, greater than 81 µM and roughly 81 µM.
Take `Cc1nc(C(NC(=O)C(=O)Nc2ccc(Cl)cc2)C2CCCCN2)sc1CCO.O=CO` (stereo not drawn) [Compound 9, N^1-(4-chlorophenyl)-N^2-((5-(2-hydroxyethyl)-4-methylthiazol-2-yl)(piperidin-2-yl)methyl)oxalamide.HCOOH]: in data set [1], the IC50 amounted to 4.2 ± 0.2 µM. In addition, in data set [2], the “% toxicity at that dose (number in parenthesis), MT-2 cells” value is on record as 0% and the CC50 (in general, the concentration that lowers cell viability or growth by half) was greater than 62 µM.
Consider `Cc1nc(C(NC(=O)C(=O)Nc2ccc(Cl)cc2)C2CCCNC2)sc1CCO` (stereo not drawn) [Compound 10, N^1-(4-chlorophenyl)-N^2-((5-(2-hydroxyethyl)-4-methylthiazol-2-yl)(piperidin-3-yl)methyl)oxalamide.2HCl], for which the IC50 in data set [1] was determined as 13.1 ± 2.4 µM. In addition, the CC50 in data set [2] was greater than 78.5 µM; in data set [3] it was roughly 59.4 µM.
On the same counts, the results for `Cc1nc(C(NC(=O)C(=O)Nc2ccc(Cl)cc2)C2CCNCC2)sc1CCO` (stereo not drawn) [Compound 11, N^1-(4-chlorophenyl)-N^2-((5-(2-hydroxyethyl)-4-methylthiazol-2-yl)(piperidin-4-yl)methyl)oxalamide.2HCl] are 30.5 ± 3.4 µM, greater than 78.5 µM and roughly 85.4 µM.
With `Cc1nc(C(NC(=O)C(=O)Nc2ccc(Cl)cc2)C2CCCCN2C)sc1CCO` (stereo not drawn) [Compound 12, N^1-(4-chlorophenyl)-N^2-((5-(2-hydroxyethyl)-4-methylthiazol-2-yl)(1-methylpiperidin-2-yl)methyl)oxalamide], the CC50 in data set [3] (setting [4]) amounted to 36 ± 3.3 µM.
Turning to `Cc1nc(C(NC(=O)C(=O)Nc2ccc(Cl)cc2)C2CCCN2)sc1CO` (stereo not drawn) [Compound 14, N^1-(4-chlorophenyl)-N^2-((5-(hydroxymethyl)-4-methylthiazol-2-yl)(pyrrolidin-2-yl)methyl)oxalamide.HCOOH], the IC50 in data set [1] is 15.4 ± 2.6 µM. The CC50 is roughly 45 µM in data set [2] and 12.4 ± 0.7 µM in data set [3].
In the same order, the values of `Cc1nc(C(NC(=O)C(=O)Nc2ccc(Cl)cc2)C2CCCN2)sc1CCO` (stereo not drawn) [Compound 15, N^1-(4-chlorophenyl)-N^2-((5-(2-hydroxyethyl)-4-methylthiazol-2-yl)(pyrrolidin-2-yl)methyl)oxalamide.HCOOH] are 16.2 ± 1.7 µM, roughly 42 µM and roughly 4.9 µM.
In the same order, the values of `CNCC(NC(=O)C(=O)Nc1ccc(Cl)cc1)c1nc(C)c(CCO)s1` (stereo not drawn) [Compound 16, N^1-(4-chlorophenyl)-N^2-(1-(5-(2-hydroxyethyl)-4-methylthiazol-2-yl)-2-(methylamino)ethyl)oxalamide.2HCl] are 24.3 ± 2.2 µM, greater than 43 µM and 16.6 ± 1 µM.
`COC(=O)[C@@H]1C[C@@H](NC(=O)C(=O)Nc2ccc(Cl)cc2)[C@H](c2ccccc2)N1` [Compound 18, (2S,4R,5S)-methyl 4-(2-(4-chlorophenylamino)-2-oxoacetamido)-5-phenyl pyrrolidine-2-carboxylate]: the 50% inhibitory concentration (IC50) in data set [1] is greater than 24.9 µM. Also, the CC50 in data set [2] (MT-2 cells, XTT, four days, read-out: MT-2 Cells CC50) was greater than 99.6 µM; in data set [3] (setting [4]), greater than 99.6 µM.
For the compound `Cc1nc(C(NC(=O)C(=O)Nc2ccc(F)cc2)C2CCCCN2)sc1CCO` (stereo not drawn) [Compound 36, N^1-(4-fluorophenyl)-N^2-((5-(2-hydroxyethyl)-4-methylthiazol-2-yl)(piperidin-2-yl)methyl)oxalamide.HCl], the CC50 was roughly 109 µM in data set [2] and greater than 88 µM in data set [3].

These data come from patent US20140377219A1, “HIV INHIBITORS” (New york Blood Center, Inc., priority 2011, published 2014).
